Test results published in patent US10124004B2, “Pyrido[3,4-d]pyrimidine derivative and pharmaceutically acceptable salt thereof” (Teijin Pharma Limited, priority 2015, dated 2018).

Tests used:
[1] = biological target: T1, CDK2/cyclin A2 (Homo sapiens, UniProt P24941); experiment: Human CDK2/cyclin A2 inhibitory activity (QS S Assist CDK2/Cyclin A2_FP Kit, IMAP fluorescence polarization); assay type: biochemical; settings: Human CDK2/cyclin A2 inhibitory activity; read-out: CDK2 Activity symbol
T1 construct: purchased Carna Biosciences, Inc. QS S Assist CDK2/Cyclin A2_FP Kit
In short: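 Kinase activity read as fluorescence polarization (485/535 nm) after phosphorylated fluorescent substrate binds IMAP reagent (30 min, RT, dark). Enzyme (2.5 ng/well) reacted 60 min at RT with ATP/substrate/metal in HEPES pH 7.4 buffer with Tween 20 and DTT; no-enzyme wells define 0% activity; IC50 by curve fit.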

[2] = biological target: T2, CDK4/cyclin D3 (Homo sapiens, UniProt P11802); experiment: Human CDK4/cyclin D3 inhibitory activity (QS S Assist CDK4/Cyclin D3_FP Kit, IMAP fluorescence polarization); assay type: biochemical; settings: Human CDK4/cyclin D3 inhibitory activity; read-out: CDK4 Activity symbol
T2 construct: purchased Carna Biosciences, Inc. QS S Assist CDK4/Cyclin D3_FP Kit
In short: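 Percent inhibition, relative to DMSO with and without enzyme, was curve-fitted to give IC50 from polarization (ex 485, em 535 nm). The 45-min room-temperature reaction used 12.5-25 ng/well enzyme, kit ATP/substrate/metal mix, and HEPES pH 7.4 buffer with Tween20 and DTT, followed by 30-min IMAP binding in the dark.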

T2 sequence (P11802 whole entry): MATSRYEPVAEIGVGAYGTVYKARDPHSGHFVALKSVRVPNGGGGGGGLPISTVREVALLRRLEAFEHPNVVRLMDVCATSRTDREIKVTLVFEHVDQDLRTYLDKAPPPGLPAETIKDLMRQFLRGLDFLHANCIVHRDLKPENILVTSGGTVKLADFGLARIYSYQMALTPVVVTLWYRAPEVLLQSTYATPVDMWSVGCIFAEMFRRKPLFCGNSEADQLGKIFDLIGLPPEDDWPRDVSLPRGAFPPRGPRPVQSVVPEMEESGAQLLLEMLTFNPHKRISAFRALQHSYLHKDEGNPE
T2 sequence (P30281 whole entry partner): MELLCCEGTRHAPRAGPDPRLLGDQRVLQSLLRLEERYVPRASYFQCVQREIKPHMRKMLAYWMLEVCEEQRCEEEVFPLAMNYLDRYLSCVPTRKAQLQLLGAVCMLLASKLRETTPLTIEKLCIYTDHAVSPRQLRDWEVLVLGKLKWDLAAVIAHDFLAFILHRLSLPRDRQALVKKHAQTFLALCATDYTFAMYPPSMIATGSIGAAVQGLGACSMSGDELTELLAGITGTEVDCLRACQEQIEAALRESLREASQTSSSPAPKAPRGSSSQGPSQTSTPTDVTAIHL

Structure (SMILES) | IC50 [1] [nM] | IC50 [2] [nM]
CC(C)Nc1nc(C(F)F)cc2cnc(Nc3ccc(CN4CCC(O)CC4)cn3)nc12 [Compound 142] | 10 to 100 | < 10
CC(C)Nc1nc(C(F)F)cc2cnc(Nc3ccc(CN(CC4CCOCC4)S(C)(=O)=O)cn3)nc12 [Compound 143] | ≥ 100 | 10 to 100
CC(=O)N(Cc1ccc(Nc2ncc3cc(C(F)F)nc(NC(C)C)c3n2)nc1)CC1CCOCC1 [Compound 144] | ≥ 100 | < 10
CC(=O)N(Cc1ccc(Nc2ncc3cc(C(F)F)nc(NC(C)C)c3n2)nc1)C[C@H]1CCCO1 [Compound 145] | 10 to 100 | < 10
CC(=O)N(Cc1ccc(Nc2ncc3cc(C(F)F)nc(NC(C)C)c3n2)nc1)C[C@@H]1CCCO1 [Compound 146] | ≥ 100 | < 10
CC(C)Nc1nc(C(F)F)cc2cnc(Nc3ccc(CN4CCC(CO)CC4)cn3)nc12 [Compound 147] | 10 to 100 | < 10
CC(C)Nc1nc(C(F)F)cc2cnc(Nc3ccc(CN(C[C@H]4CCCO4)S(C)(=O)=O)cn3)nc12 [Compound 148] | ≥ 100 | 10 to 100
CC(C)Nc1nc(C(F)F)cc2cnc(Nc3ccc(CN(C[C@@H]4CCCO4)S(C)(=O)=O)cn3)nc12 [Compound 149] | ≥ 100 | 10 to 100
CC(=O)NCCc1ccc(Nc2ncc3cc(C(F)F)nc(NC(C)C)c3n2)nc1 [Compound 150] | 10 to 100 | < 10
CC(C)Nc1nc(C(F)F)cc2cnc(Nc3ccc(CCNS(C)(=O)=O)cn3)nc12 [Compound 151] | 10 to 100 | < 10
CC(=O)NCCCc1ccc(Nc2ncc3cc(C(F)F)nc(NC(C)C)c3n2)nc1 [Compound 152] | 10 to 100 | < 10
CC(C)Nc1nc(C(F)F)cc2cnc(Nc3ccc(CCCNS(C)(=O)=O)cn3)nc12 [Compound 153] | 10 to 100 | < 10
CC(C)Nc1nc(C(F)F)cc2cnc(Nc3ccc(CCC(C)(C)O)cn3)nc12 [Compound 154] | ≥ 100 | < 10
CC(C)Nc1nc(C(F)F)cc2cnc(Nc3ccc(OCCO)cn3)nc12 [Compound 155] | 10 to 100 | < 10
CC(C)Nc1nc(C(F)F)cc2cnc(Nc3ccc(OCCCO)cn3)nc12 [Compound 156] | ≥ 100 | < 10
Cc1ccc(Nc2ncc3cc(C(F)F)nc(NC(C)C)c3n2)nc1 [Compound 157] | ≥ 100 | 10 to 100
Cc1nnc(NCc2ccc(Nc3ncc4cc(C(F)F)nc(NC(C)C)c4n3)nc2)[nH]1 [Compound 158] | ≥ 100 | 10 to 100
CC(C)Nc1nc(C(F)F)cc2cnc(Nc3ccc(C4CCS(=O)(=O)CC4)cn3)nc12 [Compound 159] | ≥ 100 | < 10
CC(C)Nc1nc(C(F)F)cc2cnc(Nc3ccc(C4CCOCC4=O)cn3)nc12 (stereo not drawn) [Compound 161] | 10 to 100 | < 10
CC(C)Nc1nc(C(F)F)cc2cnc(Nc3ccc(CN(C4CCOC4)S(C)(=O)=O)cn3)nc12 (stereo not drawn) [Compound 162] | ≥ 100 | 10 to 100

Structure (SMILES) | IC50 [1] [nM] | IC50 [2] [nM]
CC(C)Nc1nc(C(F)F)cc2cnc(Nc3ncc(N4CCNCC4)cn3)nc12 [Compound 163] | ≥ 100 | < 10
CC(C)Nc1nc(C(F)F)cc2cnc(Nc3ccc(CCCO)cn3)nc12 [Compound 164] | 10 to 100 | < 10
CC(C)Nc1nc(C(F)F)cc2cnc(Nc3ccc(CN4CCCC4=O)cn3)nc12 [Compound 165] | ≥ 100 | < 10
CC(C)Nc1nc(C(F)F)cc2cnc(Nc3ccc(CN4CCOCC4=O)cn3)nc12 [Compound 166] | 10 to 100 | < 10
CC(C)Nc1nc(C(F)F)cc2cnc(Nc3ccc(CCCN4CCCC4=O)cn3)nc12 [Compound 167] | ≥ 100 | < 10
CC(C)Nc1nc(C(F)F)cc2cnc(Nc3ccc(CCCN4CCOCC4=O)cn3)nc12 [Compound 168] | 10 to 100 | < 10
CC(C)Nc1nc(C(F)F)cc2cnc(Nc3ccc(C(=O)N4CCOCC4)cn3)nc12 [Compound 169] | 10 to 100 | < 10
CC(C)Nc1nc(C(F)F)cc2cnc(Nc3ccc(CCCN4CCCCS4(=O)=O)cn3)nc12 [Compound 170] | ≥ 100 | < 10
CC(C)Nc1nc(C(F)F)cc2cnc(Nc3ccc(N4CCC(O)CC4)nn3)nc12 [Compound 171] | 10 to 100 | < 10
CO[C@H](C)c1cc2cnc(Nc3ccc(CN4CCOCC4)cn3)nc2c(NC(C)C)n1 [Compound 172] | ≥ 100 | 10 to 100
CC(C)Nc1nc(C(F)F)cc2cnc(Nc3ccc(CN4CCOCCC4=O)cn3)nc12 [Compound 173] | 10 to 100 | < 10
CC(C)Nc1nc(C(F)F)cc2cnc(Nc3ccc(CN4CCNC(C)(C)C4)cn3)nc12 [Compound 174] | 10 to 100 | < 10
CC(C)Nc1nc(C(F)F)cc2cnc(Nc3ccc(CN4CCNC5(CC5)C4)cn3)nc12 [Compound 175] | 10 to 100 | < 10
CO[C@H](C)c1cc2cnc(Nc3ccc(CN4CCNC(=O)C4)cn3)nc2c(NC(C)C)n1 [Compound 176] | ≥ 100 | 10 to 100
CC(C)Nc1nc(C(F)F)cc2cnc(Nc3ccc(CN4CCCCC4)cn3)nc12 [Compound 177] | 10 to 100 | < 10
CC(=O)N1CCC(c2ccc(Nc3ncc4cc(C(F)F)nc(NC(C)C)c4n3)nc2)CC1 [Compound 178] | ≥ 100 | < 10
CC(C)Nc1nc(C(F)F)cc2cnc(Nc3ccc(C4CCN(S(C)(=O)=O)CC4)cn3)nc12 [Compound 179] | ≥ 100 | 10 to 100
COCC(C)(C)Nc1nc([C@@H](C)O)cc2cnc(Nc3ccc(CN4CCOCC4)cn3)nc12 [Compound 180] | ≥ 100 | 10 to 100
CC(C)Nc1nc(C(F)F)cc2cnc(Nc3ccc(N4CCNC(C)(C)C4)cn3)nc12 [Compound 181] | 10 to 100 | < 10
COCC(C)(C)Nc1nc([C@@H](C)O)cc2cnc(Nc3ccc(CN4CCNC(=O)C4)cn3)nc12 [Compound 182] | ≥ 100 | 10 to 100

Structure (SMILES) | IC50 [1] [nM] | IC50 [2] [nM]
CC(C)Nc1nc(C(F)F)cc2cnc(Nc3ccc(N4C[C@H](O)CC4=O)cn3)nc12 [Compound 183] | 10 to 100 | < 10
CC(C)Nc1nc(C(F)F)cc2cnc(Nc3ccc(N4C[C@@H](O)CC4=O)cn3)nc12 [Compound 184] | 10 to 100 | < 10
CC(C)Nc1nc(C(F)F)cc2cnc(Nc3ccc(CN(C)C(N)=O)cn3)nc12 [Compound 185] | 10 to 100 | < 10
CCNC(=O)NCc1ccc(Nc2ncc3cc(C(F)F)nc(NC(C)C)c3n2)nc1 [Compound 186] | ≥ 100 | 10 to 100
CC(C)Nc1nc(C(F)F)cc2cnc(Nc3ccc(CNS(N)(=O)=O)cn3)nc12 [Compound 187] | ≥ 100 | 10 to 100
CC(C)Nc1nc(C(F)F)cc2cnc(Nc3ccc(-c4cnn(C)c4)cn3)nc12 [Compound 188] | ≥ 100 | 10 to 100
CC(C)Nc1nc(C(F)F)cc2cnc(Nc3ccc(CN4CCCC4C(=O)O)cn3)nc12 (stereo not drawn) [Compound 189] | 10 to 100 | < 10
CC(C)Nc1nc(C(F)F)cc2cnc(Nc3ccc(CN4CCC(C(=O)O)C4)cn3)nc12 (stereo not drawn) [Compound 190] | 10 to 100 | < 10
CC(C)Nc1nc(C(F)F)cc2cnc(Nc3ccc(N4CCC(C(C)(C)O)CC4)nn3)nc12 [Compound 191] | 10 to 100 | < 10
CO[C@H](C)c1cc2cnc(Nc3ccc(CCCN4CCOCC4=O)cn3)nc2c(NC(C)C)n1 [Compound 192] | ≥ 100 | 10 to 100
COCC(C)(C)Nc1nc([C@@H](C)O)cc2cnc(Nc3ccc(CCCN4CCOCC4=O)cn3)nc12 [Compound 193] | ≥ 100 | 10 to 100
CC(C)Nc1nc(C(F)F)cc2cnc(Nc3ccc(CN4CCCCC4C(=O)O)cn3)nc12 (stereo not drawn) [Compound 194] | 10 to 100 | < 10
COCC(C)(C)Nc1nc([C@@H](C)O)cc2cnc(Nc3ccc(N4CCNCC4)cn3)nc12 [Compound 195, (R)-1-(8-(l-methoxy-2-methylpropan-2-ylamino)-2-(5-(piperazin-1-yl)pyridin-2-ylamino)pyrido[3,4-d]pyrimidin-6-yl)ethanol] | ≥ 100 | < 10
COCC(C)(C)Nc1nc([C@@H](C)O)cc2cnc(Nc3ccc(CN4CCC(C(C)(C)O)CC4)cn3)nc12 [Compound 196] | ≥ 100 | < 10
COCC(C)(C)Nc1nc([C@@H](C)O)cc2cnc(Nc3ccc(CN4CCC(C(=O)O)CC4)cn3)nc12 [Compound 197] | ≥ 100 | 10 to 100
COCC(C)(C)Nc1nc([C@@H](C)O)cc2cnc(Nc3ccc(CN4CCOCC4=O)cn3)nc12 [Compound 198] | ≥ 100 | 10 to 100
CO[C@H](C)c1cc2cnc(Nc3ccc(CN4CCOCC4=O)cn3)nc2c(NC(C)C)n1 [Compound 199] | ≥ 100 | 10 to 100
CO[C@H](C)c1cc2cnc(Nc3ccc(CN4CCC(C(C)(C)O)CC4)cn3)nc2c(NC(C)C)n1 [Compound 200] | ≥ 100 | < 10
CO[C@H](C)c1cc2cnc(Nc3ccc(N4CCC(O)CC4)nn3)nc2c(NC(C)C)n1 [Compound 201] | ≥ 100 | 10 to 100
COCC(C)(C)Nc1nc([C@@H](C)O)cc2cnc(Nc3ccc(N4CCC(O)CC4)nn3)nc12 [Compound 202] | ≥ 100 | 10 to 100
